Laboratory results reported in patent publication US4117136A, “Systemic antimicrobial quinolines for plant disease” (Sumitomo Chemical Company, Ltd., priority 1976, dated 1978).
Values after ≈ are worked out from the molar mass of the structure shown. Where a name gives a salt, the structure may show the parent alone. Read-outs that look alike come from different tables or passages of the source.

Columns and labels:
[1] = test system: Pseudomonas lachrymans; assay: Disease prevention effect on angular leaf spot of cucumber; assay type: in vivo, Pseudomonas lachrymans (on cucumber, Cucumis sativus L.); conditions: spray, 4 hours before inoculation
Procedure: Four hours after the application of the sample, a suspension of Pseudomonas lachrymans was inoculated by spraying on the plant. […] Incidence of disease was assessed in the following manner. […] |______________________________________ |______________________________________ |0 Healthy […] |3 26-50% diseased spot areas […] | [drawing 22] Five plants were used for each treatment.

[2] = test system: Pseudomonas solanacearum; assay type: in vivo, Pseudomonas solanacearum (on tomato, Sekai Ichi); conditions: soil application, one day after inoculation, assessed after additional 10 days
[3] = test system: Xanthomonas oryzae; assay type: in vivo, Xanthomonas oryzae (on rice plant, Kinki #33); conditions: spray, 500 ppm, 4 hours before inoculation, 7 days, bacterial-exudation method
[4] = test system: Erwinia carotovora; assay: Plant systemic activity (root immersion, Chinese cabbage); conditions: roots immersed, 10 ppm, inoculated after 2 days
[5] = test system: P. lachrymans; assay: Controlling angular leaf spot of cucumber by seed treatment; conditions: grown 2 weeks
[6] = test system: E. carotovora; assay: Antibacterial activity against E. carotovora (agar dilution MIC); conditions: for MIC: Pectobacterium carotovorum, 72 h, read-out: MIC (minimum inhibitory concentration); for antibacterial activity: result in words, in vitro, Erwinia carotovora
[7] = inoculated seeds soaked 30 minutes, 500 ppm

SMILES	Severity of Disease ([1]; 500 ppm) [%]	Ratio of Diseased Seedling ([2]; 500 ppm) [%]	Severity of Disease [3] [%]	Severity of Disease [4] [%]	Infected Plants [5, 7] [%]	MIC [6] [µg/mL]	also measured
CCn1cc(C(=O)OC)c(=O)c2cc3c(cc21)OCO3 [(2)]	25	36	0	0	0	> 50	antibacterial activity [6]: very weak antibacterial activity
COn1cc(C(=O)O)c(=O)c2cc3c(cc21)OCO3 [(3)]						0.39 (≈ 1.48 µM)	
O=C(O)c1cn(CC(F)(F)F)c2cc3c(cc2c1=O)OCO3 [(6)]						3.12 (≈ 9.9 µM)	
CCOC(=O)c1cn(CCF)c2cc3c(cc2c1=O)OCO3 [(8)]	21	24	0	0	0	> 50	antibacterial activity [6]: very weak antibacterial activity
COn1cc(C(=O)O)c(=O)c2c3sc(=O)n(C)c3ccc21 [(10)]				25		0.049 (≈ 0.16 µM)	
CCn1c(C)c(C(=O)O)c(=O)c2cc3c(cc21)OCO3 [(11)]						> 50	antibacterial activity [6]: very weak antibacterial activity
C=Cn1cc(C(=O)O)c(=O)c2cc3c(cc21)OCO3 [(13)]	2.4	4	0	0	0		MIC (minimum inhibitory concentration) ([6]; agar culture medium, 3 days at 27° C): 0.78 µg/mL (≈ 3.01 µM)
CCn1cc(C(=O)O)c(=O)c2cc3c(cc21)OCO3 [Compound (1)]	7.9	10	0	0	0	1.56 (≈ 5.97 µM)	
C=Cn1cc(C(=O)O)c(=O)c2cc3c(cc21)OCO3 [Compound (4)]	4.6	6	0	0	0	0.78 (≈ 3.01 µM)	
O=C(O)c1cn(CCF)c2cc3c(cc2c1=O)OCO3 [Compound (7)]	12	18	0	0	0	0.78 (≈ 2.79 µM)	
O=C(O)c1cn(CCCl)c2cc3c(cc2c1=O)OCO3 [Compound (9)]	19	14	0	0		1.56 (≈ 5.28 µM)	
CCn1cc(C(=O)O)c(=O)c2ccc(C)nc21 [Nalidixic acid, nalidixic acid, reference compound]						6.25 (≈ 26.9 µM)	
OCl [Sodium Hypochlorite, reference compound]							Infected Plants ([5]; inoculated seeds soaked 30 minutes, 2,000 ppm): 7.5%
[H]/N=C(/N)N[C@H]1[C@H](O)[C@@H](O)[C@H](O[C@@H]2O[C@@H](C)[C@](O)(C=O)[C@H]2O[C@@H]2O[C@@H](CO)[C@H](O)[C@@H](O)[C@@H]2NC)[C@@H](N/C(N)=N\[H])[C@@H]1O [Streptomycin Sulfate, reference compound]				31			Severity of Disease ([1]; 200 ppm): 28%; Ratio of Diseased Seedling ([2]; 200 ppm): 86%; Infected Plants ([5]; inoculated seeds soaked 30 minutes, 200 ppm): 26.5%
